Nine molecules from ChEMBL document CHEMBL1201862, “PubChem BioAssay data set” (2004) can be followed below.

The source made the active and inactive calls.

Experiment [1] addresses Disintegrin and metalloproteinase domain-containing protein 17 (Homo sapiens, UniProt P78536). Put plainly: inhibition of ADAM17 substrate cleavage – biochemical, quenched FRET substrate, counter-screen for ADAM10 exosite inhibitor project, dose response (AID 743253). Background: A counterscreen serves to expose hits that act by an unwanted route or on another target.
The target of a further experiment is Albumin (Bos taurus, UniProt P02769). Nature of the experiment: Counterscreen for inhibitors of T-cell receptor (TCR)-CD3 interaction: Fluorescence-based biochemical high throughput dose response assay to identify inhibitors of T-cell receptor (TCR)-CD3 interaction using a TAMRA-labeled BSA probe. Format: functional.
Chain of Albumin (P02769 whole entry): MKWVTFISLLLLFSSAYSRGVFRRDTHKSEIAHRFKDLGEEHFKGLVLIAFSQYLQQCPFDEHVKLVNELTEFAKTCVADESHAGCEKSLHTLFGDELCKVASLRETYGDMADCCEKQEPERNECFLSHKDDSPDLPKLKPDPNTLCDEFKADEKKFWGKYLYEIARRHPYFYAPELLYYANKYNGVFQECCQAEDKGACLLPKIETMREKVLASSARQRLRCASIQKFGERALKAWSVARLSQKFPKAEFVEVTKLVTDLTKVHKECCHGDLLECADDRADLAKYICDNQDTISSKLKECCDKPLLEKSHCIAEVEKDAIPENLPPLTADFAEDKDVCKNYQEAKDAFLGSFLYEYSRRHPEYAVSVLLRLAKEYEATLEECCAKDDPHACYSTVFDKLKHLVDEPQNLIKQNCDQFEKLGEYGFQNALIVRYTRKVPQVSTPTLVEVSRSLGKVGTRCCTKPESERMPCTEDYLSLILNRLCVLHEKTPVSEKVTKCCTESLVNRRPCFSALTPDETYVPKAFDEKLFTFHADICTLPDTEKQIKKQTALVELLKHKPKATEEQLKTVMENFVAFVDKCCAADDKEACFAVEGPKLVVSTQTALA
Experiment [2] can be described thus: potency of ADAM10 substrate cleavage blockers – biochemical, QFRET, dose response (AID 743254).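 Also: ADAM10 enzyme with the DM2 quenched FRET peptide as substrate; EDANS fluorescence gain as the protease cuts the substrate; inhibitor potency against ADAM10 proteolytic activity.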
Experiment [3] deals with COUP transcription factor 2 (Homo sapiens, UniProt P24468). Put plainly: Luminescence-based cell-based high throughput dose response assay to identify inhibitors of COUP-TFII (NR2F2). Format: functional.
Chain of COUP transcription factor 2 (P24468 whole entry): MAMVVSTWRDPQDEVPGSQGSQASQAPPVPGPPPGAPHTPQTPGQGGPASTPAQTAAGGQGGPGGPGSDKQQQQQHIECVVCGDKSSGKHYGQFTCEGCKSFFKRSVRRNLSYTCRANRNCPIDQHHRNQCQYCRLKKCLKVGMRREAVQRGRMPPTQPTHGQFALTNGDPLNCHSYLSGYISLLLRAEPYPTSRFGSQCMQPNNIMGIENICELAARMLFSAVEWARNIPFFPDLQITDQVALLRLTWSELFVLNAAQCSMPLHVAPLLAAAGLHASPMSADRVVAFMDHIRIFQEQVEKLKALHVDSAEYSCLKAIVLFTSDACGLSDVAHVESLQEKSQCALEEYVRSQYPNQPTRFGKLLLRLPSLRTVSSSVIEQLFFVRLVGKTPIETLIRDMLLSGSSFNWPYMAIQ
Another experiment concerns the target Paired box protein Pax-8 (Homo sapiens, UniProt Q06710). Put plainly: PAX8 transcriptional activity inhibition in RMG-I – RMG-I cells, luciferase, cherry-pick, dose response (AID 687027).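 Also: luciferase reporter driven by Pax8 target thyroperoxidase promoter measured by SteadyGlo luminescence.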 Format: functional, cell-based.
Experiment [4] is described as follows: A2780 cell killing – plate reader, dry powder samples, cytotoxicity control, dose response (AID 743046). Format: functional, cell-based.
The nature of experiment [5]: OVCAR-3 cell viability loss – plate reader, dry powder samples, PAX8 inhibitor project, dose response (AID 743044). Format: functional, cell-based.
Experiment [6] concerns the target T1, Corticotropin-releasing factor receptor 2/Corticotropin-releasing factor-binding protein (Homo sapiens, UniProt P24387+Q13324).
T1 sequence (Q13324 whole entry): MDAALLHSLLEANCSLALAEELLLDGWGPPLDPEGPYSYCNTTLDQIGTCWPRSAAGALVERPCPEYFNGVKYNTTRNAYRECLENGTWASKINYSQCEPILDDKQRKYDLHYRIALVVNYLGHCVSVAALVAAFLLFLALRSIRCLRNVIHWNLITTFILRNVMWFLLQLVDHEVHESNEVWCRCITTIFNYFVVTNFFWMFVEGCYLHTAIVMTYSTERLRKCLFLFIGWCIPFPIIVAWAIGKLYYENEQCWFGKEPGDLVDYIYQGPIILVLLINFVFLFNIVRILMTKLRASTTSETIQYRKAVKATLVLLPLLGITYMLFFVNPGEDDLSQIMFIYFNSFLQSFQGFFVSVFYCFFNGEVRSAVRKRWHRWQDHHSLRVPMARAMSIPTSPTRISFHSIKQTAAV
T1 sequence (P24387 whole entry): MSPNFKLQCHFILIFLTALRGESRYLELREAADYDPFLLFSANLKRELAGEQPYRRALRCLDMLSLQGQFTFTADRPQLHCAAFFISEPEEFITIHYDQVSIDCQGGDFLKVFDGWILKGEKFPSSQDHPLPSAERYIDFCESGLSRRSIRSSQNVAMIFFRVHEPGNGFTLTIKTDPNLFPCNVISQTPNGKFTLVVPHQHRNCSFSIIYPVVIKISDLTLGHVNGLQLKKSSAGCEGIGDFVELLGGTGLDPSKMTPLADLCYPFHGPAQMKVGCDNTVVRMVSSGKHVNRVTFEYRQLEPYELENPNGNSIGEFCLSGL
Put plainly: Dose Response confirmation of uHTS hits for small molecule antagonists of the CRF-binding protein and CRF-R2 receptor complex. Format: functional. Particulars: read-out: IC50_Mean.

The next experiment deals with fMet-Leu-Phe receptor (Homo sapiens, UniProt P21462). Nature of the experiment: formyl peptide receptor binders – dose response (AID 519). Format: functional.
Chain of fMet-Leu-Phe receptor (P21462 whole entry): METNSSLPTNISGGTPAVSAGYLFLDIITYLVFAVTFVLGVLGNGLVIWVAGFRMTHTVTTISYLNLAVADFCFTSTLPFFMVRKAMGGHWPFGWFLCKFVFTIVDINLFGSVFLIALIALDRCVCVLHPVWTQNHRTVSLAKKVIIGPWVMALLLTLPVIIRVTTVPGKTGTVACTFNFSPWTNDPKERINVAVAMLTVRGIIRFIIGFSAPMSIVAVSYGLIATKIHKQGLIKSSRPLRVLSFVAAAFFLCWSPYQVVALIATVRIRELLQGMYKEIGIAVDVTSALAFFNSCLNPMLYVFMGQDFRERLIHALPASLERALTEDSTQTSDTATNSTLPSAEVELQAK
Experiment [7] has as its target FAD-linked sulfhydryl oxidase ALR (Homo sapiens, UniProt P55789). Put plainly: ALR-catalysed DTT oxidation blockers – biochemical, H2O2 detection, luminescence, cherry-pick, dose response (AID 493248).
Experiment [8] addresses T1, Corticotropin-releasing factor receptor 2/Corticotropin-releasing factor-binding protein. Put plainly: activators of CRF receptor 2 with binding protein – uHTS hits, confirmation (AID 602473). Format: functional. Particulars: read-out: EC50_Mean.
Experiment [9] is described as follows: viability loss in CEM21 cells – cell-based, CellTiter-Glo luminescence, cherry-picked, cytotoxicity control for viral fusion inhibitor project, dose response (AID 652042).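 Also: potency for signal decrease meaning cytotoxicity.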 Format: functional. On the technique in general: Cellular ATP, detected with luciferase, serves as a proxy for viable cell number.
Experiment [10] in a line: T. cruzi growth inhibition in host cells, dose response, cell-based, plate reader, dry powder, set 2 (AID 652275). Format: functional.
The target in experiment [11] is ATP-dependent molecular chaperone HSP82 (Candida albicans (strain WO-1) (Yeast), UniProt C4YTQ8). Nature of the experiment: steroid-induced GRE reporter decrease in yeast – S. cerevisiae, luminescence, Hsp90 inhibitor project, dose response (AID 2400).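 Also: beta-galactosidase luminescence from glucocorticoid response element reporter as proxy for Hsp90 function; inhibitor potency where signal loss means Hsp90 inhibition.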 Format: functional, cell-based.
Chain of ATP-dependent molecular chaperone HSP82 (C4YTQ8 whole entry): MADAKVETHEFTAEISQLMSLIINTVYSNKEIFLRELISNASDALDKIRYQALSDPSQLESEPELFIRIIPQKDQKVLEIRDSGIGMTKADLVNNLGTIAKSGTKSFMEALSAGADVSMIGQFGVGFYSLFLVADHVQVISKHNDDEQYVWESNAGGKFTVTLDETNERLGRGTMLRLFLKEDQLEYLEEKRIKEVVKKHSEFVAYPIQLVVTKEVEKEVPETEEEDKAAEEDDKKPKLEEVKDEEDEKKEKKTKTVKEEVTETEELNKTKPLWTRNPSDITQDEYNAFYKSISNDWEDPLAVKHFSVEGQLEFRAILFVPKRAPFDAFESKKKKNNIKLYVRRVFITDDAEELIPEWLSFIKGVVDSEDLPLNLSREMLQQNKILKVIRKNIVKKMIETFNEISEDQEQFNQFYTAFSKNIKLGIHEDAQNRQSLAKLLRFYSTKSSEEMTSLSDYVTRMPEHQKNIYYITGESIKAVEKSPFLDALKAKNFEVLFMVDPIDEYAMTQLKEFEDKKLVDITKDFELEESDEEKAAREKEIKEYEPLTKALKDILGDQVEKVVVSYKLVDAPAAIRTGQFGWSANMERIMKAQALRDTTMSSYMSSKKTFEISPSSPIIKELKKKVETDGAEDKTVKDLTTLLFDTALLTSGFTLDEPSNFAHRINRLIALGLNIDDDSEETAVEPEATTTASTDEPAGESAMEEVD
The target in experiment [12] is Heat shock protein HSP 90-alpha (Homo sapiens, UniProt P07900). Format: functional, organism-based.
The target of experiment [13] is T2, Kappa-type opioid receptor (Homo sapiens, UniProt P41145). Format: functional.
T2 sequence (P41145 whole entry): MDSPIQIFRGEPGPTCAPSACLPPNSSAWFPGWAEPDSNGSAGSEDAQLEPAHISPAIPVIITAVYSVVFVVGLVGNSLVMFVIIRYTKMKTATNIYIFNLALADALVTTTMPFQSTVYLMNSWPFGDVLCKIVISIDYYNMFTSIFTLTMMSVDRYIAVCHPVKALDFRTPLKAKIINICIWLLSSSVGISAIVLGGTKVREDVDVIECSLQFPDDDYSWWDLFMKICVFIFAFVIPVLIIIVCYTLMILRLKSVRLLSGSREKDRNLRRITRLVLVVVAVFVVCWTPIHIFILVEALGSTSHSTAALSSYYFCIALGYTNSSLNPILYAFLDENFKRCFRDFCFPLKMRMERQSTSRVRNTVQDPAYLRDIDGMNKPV
The target of experiment [14] is T2, Kappa-type opioid receptor. Format: functional. The source holds these as a separate data set.
The test system of the next experiment is Streptococcus. Nature of the experiment: GAS UMAA2166 growth inhibition – luminescence, BacTiterGlo, counter-screen for streptokinase expression inhibitor project, dose response (AID 1915).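 Also: potency for reduction of bacterial viability or growth.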 Format: functional, organism-based.
The target of experiment [15] is Matrix metalloproteinase-14 (Homo sapiens, UniProt P50281). Nature of the experiment: Dose Response confirmation of uHTS hits for a small molecule inhibitors of MT1-MMP activation in a fluorescence assay set 1. Format: functional.
Another experiment concerns Vero. Put plainly: cells. The note with it: Chlorocebus sabaeus. Format: functional.
Experiment [16] is described as follows: fluconazole-exposed Candida albicans growth modulators – fluorescence, retest, confirmation (AID 2467). Format: functional, cell-based.
In experiment [17] the target is T3, Serine/threonine-protein phosphatase (Candida dubliniensis (strain CD36 / CBS 7987 / NCPF 3949 / NRRLY-17841) (Yeast), UniProt B9W6M3).
T3 sequence (B9W6M3 whole entry): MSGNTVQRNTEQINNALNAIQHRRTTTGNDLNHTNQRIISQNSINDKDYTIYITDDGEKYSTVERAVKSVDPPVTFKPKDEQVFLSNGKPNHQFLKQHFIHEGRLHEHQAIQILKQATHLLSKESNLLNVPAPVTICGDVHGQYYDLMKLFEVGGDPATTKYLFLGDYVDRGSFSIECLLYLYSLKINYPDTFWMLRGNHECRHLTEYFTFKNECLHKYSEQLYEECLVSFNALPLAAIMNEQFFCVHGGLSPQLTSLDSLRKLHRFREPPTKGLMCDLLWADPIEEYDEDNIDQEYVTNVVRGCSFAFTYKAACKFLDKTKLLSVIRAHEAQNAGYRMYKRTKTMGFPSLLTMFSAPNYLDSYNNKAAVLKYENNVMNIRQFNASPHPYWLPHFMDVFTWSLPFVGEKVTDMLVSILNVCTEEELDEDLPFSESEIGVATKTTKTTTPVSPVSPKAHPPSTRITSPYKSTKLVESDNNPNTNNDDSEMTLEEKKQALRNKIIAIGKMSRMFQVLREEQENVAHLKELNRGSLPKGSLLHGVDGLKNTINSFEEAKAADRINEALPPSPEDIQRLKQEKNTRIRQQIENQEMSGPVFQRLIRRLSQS
Put plainly: blockers of CaCl2-induced CDRE-lacZ signaling – S. cerevisiae, luminescence, secondary, dose response (AID 2388).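 Also: yeast reporter cells carrying a calcineurin-responsive lacZ construct stimulated with calcium chloride; luminescent beta-galactosidase reporter signal in whole cells rather than isolated phosphatase activity; potency for inhibition where a drop in reporter signal means calcineurin blockade.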 Format: functional, cell-based.

Experiment [18] deals with Streptococcus sp. 'group A'. Put plainly: Streptococcus pyogenes SK(-)GAS viability under kanamycin – luminescence, BacTiterGlo, confirmation, counter-screen for streptokinase expression inhibitor project, dose response (AID 1900). Format: functional, organism-based.
Experiment [19] is described as follows: NIH-3T3 fibroblast cytotoxicity, dose response, cytotoxicity control, cell-based, fluorescence, Alamar Blue, secondary assay (AID 2327).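 Also: NIH-3T3 mouse fibroblasts cultured with fluconazole at 8 µg/mL.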 Format: functional.
For a further experiment, the target named is Beta-galactosidase (Escherichia coli, UniProt Q8VNN2). Format: functional.
Experiment [20] can be described thus: HGIII-sPLA2 enzyme inhibition potency – biochemical, QFRET, IC50, dose response (AID 743457).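 Also: green fluorescence rise as the enzyme cleaves BODIPY PC-A2 in liposomes.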
In experiment [21] the target is Tyrosyl-DNA phosphodiesterase 2 (Homo sapiens, UniProt O95551). Put plainly: potency against TDP2 phosphodiesterase activity – biochemical, epi absorbance, IC50, dose response (AID 743297).
Chain of Tyrosyl-DNA phosphodiesterase 2 (O95551 whole entry): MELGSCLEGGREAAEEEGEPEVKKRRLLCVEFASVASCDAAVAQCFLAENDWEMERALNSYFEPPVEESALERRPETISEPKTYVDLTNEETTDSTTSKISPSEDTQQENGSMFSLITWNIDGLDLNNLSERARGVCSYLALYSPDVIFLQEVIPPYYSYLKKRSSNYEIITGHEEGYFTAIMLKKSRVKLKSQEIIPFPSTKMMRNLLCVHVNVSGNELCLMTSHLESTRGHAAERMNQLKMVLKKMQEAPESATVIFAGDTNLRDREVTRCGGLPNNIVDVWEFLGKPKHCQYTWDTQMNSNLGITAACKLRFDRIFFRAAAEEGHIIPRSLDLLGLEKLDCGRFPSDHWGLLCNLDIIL

Chain of Disintegrin and metalloproteinase domain-containing protein 17 (P78536 whole entry, the tested form may be a part): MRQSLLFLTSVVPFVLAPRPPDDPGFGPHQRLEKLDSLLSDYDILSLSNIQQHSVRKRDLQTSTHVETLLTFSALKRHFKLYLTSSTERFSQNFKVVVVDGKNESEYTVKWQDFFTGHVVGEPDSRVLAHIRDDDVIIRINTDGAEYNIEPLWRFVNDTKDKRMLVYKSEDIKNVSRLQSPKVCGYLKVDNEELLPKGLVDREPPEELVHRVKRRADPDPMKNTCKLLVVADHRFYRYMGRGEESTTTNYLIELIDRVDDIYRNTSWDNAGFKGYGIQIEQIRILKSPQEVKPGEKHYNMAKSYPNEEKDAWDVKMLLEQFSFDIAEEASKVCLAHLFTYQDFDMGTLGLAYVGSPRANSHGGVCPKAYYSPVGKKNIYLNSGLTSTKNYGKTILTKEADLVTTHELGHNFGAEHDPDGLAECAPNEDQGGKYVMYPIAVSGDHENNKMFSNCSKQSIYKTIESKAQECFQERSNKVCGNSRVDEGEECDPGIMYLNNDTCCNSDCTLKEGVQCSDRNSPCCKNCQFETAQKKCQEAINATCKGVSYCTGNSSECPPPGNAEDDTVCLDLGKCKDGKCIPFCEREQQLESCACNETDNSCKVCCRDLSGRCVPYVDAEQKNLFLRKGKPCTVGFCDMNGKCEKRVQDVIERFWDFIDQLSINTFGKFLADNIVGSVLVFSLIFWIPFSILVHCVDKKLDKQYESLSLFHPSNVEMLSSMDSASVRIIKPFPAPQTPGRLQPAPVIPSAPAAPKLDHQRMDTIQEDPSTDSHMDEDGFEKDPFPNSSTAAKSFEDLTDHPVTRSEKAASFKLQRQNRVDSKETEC
Chain of FAD-linked sulfhydryl oxidase ALR (P55789 whole entry): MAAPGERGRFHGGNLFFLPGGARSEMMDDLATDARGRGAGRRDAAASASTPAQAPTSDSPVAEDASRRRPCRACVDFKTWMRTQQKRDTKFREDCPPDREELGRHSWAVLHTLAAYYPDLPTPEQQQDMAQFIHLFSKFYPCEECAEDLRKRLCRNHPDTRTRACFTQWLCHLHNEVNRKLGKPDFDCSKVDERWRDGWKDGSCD
Chain of Paired box protein Pax-8 (Q06710 whole entry): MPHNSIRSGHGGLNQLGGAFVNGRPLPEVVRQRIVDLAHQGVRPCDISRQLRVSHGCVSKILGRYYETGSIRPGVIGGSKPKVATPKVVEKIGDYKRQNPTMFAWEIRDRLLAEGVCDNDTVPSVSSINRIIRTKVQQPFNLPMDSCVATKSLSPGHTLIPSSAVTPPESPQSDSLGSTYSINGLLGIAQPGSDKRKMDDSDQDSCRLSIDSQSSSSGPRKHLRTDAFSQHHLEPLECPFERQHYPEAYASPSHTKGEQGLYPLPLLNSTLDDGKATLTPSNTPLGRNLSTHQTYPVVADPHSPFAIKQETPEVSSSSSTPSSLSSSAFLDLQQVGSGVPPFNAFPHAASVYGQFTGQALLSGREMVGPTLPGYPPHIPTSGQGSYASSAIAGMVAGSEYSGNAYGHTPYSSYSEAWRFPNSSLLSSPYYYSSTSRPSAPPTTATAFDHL

For the molecule `COc1cc(/C=N/NC(=O)COc2ccc(Cl)cc2)ccc1OS(=O)(=O)c1ccc(C)cc1`, the IC50 is > 69.5 µM (inactive) in [1], > 94.1 µM (inactive) on Albumin and > 69.5 µM (inactive) in experiment [2].
In the case of `Cc1sc(NC(=O)CN2CCOCC2)nc1-c1ccc2c(c1)CCN2S(=O)(=O)c1ccccc1`, the IC50 in [3] is 8.52 µM (active).
For `C[C@H](CO)N1C[C@H](C)[C@@H](CN(C)S(=O)(=O)c2ccccc2)OCCCC[C@H](C)Oc2ccc(NS(=O)(=O)c3ccc(Cl)cc3)cc2C1=O`, the AC50 (commonly the concentration at which the activity in the assay is half-maximal) on Paired box protein Pax-8 is 5.23 µM (active); in experiment [4], 49.8 µM (active); in [5] it was 32.2 µM (active).
For the molecule `Cc1ccc(Nc2ccc(C(=O)O)cc2N)cc1`, the IC50 in experiment [6] is > 47.1 µM (inactive). Further, the Ki (usually a measure of affinity in units of concentration, obtained from inhibition or displacement) on fMet-Leu-Phe receptor was > 66.7 µM (inactive). For the same molecule, the AC50 in experiment [7] was 0.246 µM (active). For the same molecule, the EC50 in experiment [8] is > 53 µM (inactive).
For the molecule `Cc1ccc(NC(=O)c2ccc(OCC3CCCO3)cc2)cc1Cl` (stereo not drawn), the AC50 in [9] is 50 µM (active).
`COc1cccc(-c2ccc([C@H]3[C@H](CO)N4CCCCN(CC5CCOCC5)C[C@@H]34)cc2)c1`: the AC50 in experiment [10] is 1.88 µM (active).
`COc1ccc(C)cc1N=Nc1ccc(O)c2ncccc12`: the EC50 is 2.92 µM (active) in [11]; 2.67 µM (active) with Streptococcus; 0.598 µM (active) in [16]; > 180 µM (inactive) in experiment [17]; 0.357 µM (active) in [18]; 11.1 µM (active) in experiment [19]. Further, on Beta-galactosidase, the EC50 was 23.6 µM (active). The AC50 in experiment [12] is 1.57 µM (active). Besides, the IC50 in [13] was > 32 µM; in experiment [14], > 31.5 µM (inactive); in experiment [15], 23.8 µM (inactive). Besides, in the experiment on Vero, the CC50 (in general, the concentration giving 50% cytotoxicity) is 5.17 µM (active).
Turning to `Cc1ccccc1NC(=O)NNC(=O)c1ccc2ccccc2c1O`, the results for the IC50 (in experiment [20]; at Albumin) were > 122 µM (inactive) and > 94.2 µM (inactive), respectively.
`O=C(NC(=S)Nc1ccccc1N1CCCC1)c1ccco1`: the IC50 in experiment [21] is > 128 µM (inactive).
